Test results from patent US20250268166A1, “ALS-INHIBITOR HERBICIDE TOLERANT BETA VULGARIS HYBRIDS WITH INCREASED HETEROSIS” (BAYER AKTIENGESELLSCHAFT, priority 2021, published 2025).

System: B. vulgaris plants comprising the BvALS_W569L allele
Assay: Sensitivity of B. vulgaris plants to ALS inhibitor herbicide (BvALS_W569L allele vs wild type allele)
Type: in vivo, Beta vulgaris
Source text: Beta vulgaris plants comprising the BvALS_W569L allele are less sensitive to an ALS inhibitor, more preferably it is at least 100 times less sensitive, more preferably, 500 times, even more preferably 1000 times and most preferably […] 2000 times than Beta vulgaris plants comprising the wild-type allele. Less sensitive when used herein may, vice versa, be seen as “more tolerable” or “more resistant”. Similarly, “more tolerable” or “more resistant” may, vice versa, be seen as “less sensitive”. For example, B. vulgaris plants comprising the BvALS_W569L allele are at least 2000 times less sensitive to the ALS inhibitor herbicide foramsulfuron (a member of the ALS inhibitor subclass “sulfonylurea herbicides”) compared to B. vulgaris plants comprising a BvALS wild type allele.

## COc1cc(OC)nc(NC(=O)NS(=O)(=O)c2cc(NC=O)ccc2C(=O)N(C)C)n1 [foramsulfuron]
  times less sensitive to the ALS inhibitor herbicide compared to B. vulgaris plants comprising a BvALS wild type allele: at least 2000 times
